Experimental findings from US20030053966A1, “Insoluble organic UV screening agents of aryl vinylene ketone type, and cosmetic use thereof” (priority 2001, published 2003) are described below.

The nature of data set [1]: UV absorption of the compound in solution. It counts as physicochemical.
Setting [2] is: solution in DMSO/CH2Cl2, at λmax.

Turning to `CC12CCC(/C(=C\c3ccc(/C=C4/C(=O)C5(C)CCC4C5(C)C)cc3)C1=O)C2(C)C` [Example 5, 1,4-phenylenebis(3-methylidenecamphor)], the melting point amounted to 234 °C.

Molecule `Cc1c(C)c(C=C2C(=O)C3(C)CCC2C3(C)C)c(C)c(C)c1C=C1C(=O)C2(C)CCC1C2(C)C` [Example 6, (2,3,5,6-tetramethyl)-1,4-phenylenebis-(3-methylidenecamphor)] showed a λmax in data set [1] (solution in CH2Cl3) of 286 nm. Besides, in data set [1] (solution, at λmax), the E1% came to 270 and the εmax was 12 200.

In the case of `C[Si](C)(C)CCCOc1ccc(/C=C2\CC/C(=C\c3ccc(OCCC[Si](C)(C)C)cc3)C2=O)cc1` [Example 8, 2,5-bis[4-(3-trimethylsilanylpropyloxy)-benzylidene]cyclopentanone], the melting point was in the range of 205 to 207 °C. The λmax in data set [1] (solution in CHCl3) was found to be 391 nm. For the same molecule, in data set [1] (solution in CHCl3, at λmax), the E1% worked out at 940 and the εmax was 49 100.

`CCNS(=O)(=O)CC12CCC(C(=Cc3ccc(C=C4C(=O)C5(CS(=O)(=O)NCC)CCC4C5(C)C)cc3)C1=O)C2(C)C` [Example 1, 1,4-phenylenebis(ethyl 3,3′-methylidenecamphor-10,10′-sulphonamide)]: the λmax in data set [1] (solution in DMSO/CH2Cl2) stood at 342 nm. Besides, in data set [1] (setting [2]), the E1% came to 654 and the εmax worked out at 40350.

In the case of `CCCCC(CC)CNS(=O)(=O)CC12CCC(C(=Cc3ccc(C=C4C(=O)C5(CS(=O)(=O)NCC(CC)CCCC)CCC4C5(C)C)cc3)C1=O)C2(C)C` (stereo not drawn) [Example 2, 1,4-phenylenebis(2-ethylhexyl 3,3′-methylidenecamphor-10,10′-sulphonamide)], the λmax in data set [1] (solution in CH2Cl2) was 342 nm. In addition, in data set [1] (solution in CH2Cl2, at λmax), the E1% is reported as 522 and the εmax is recorded as 41 000.

Molecule `CC12CCC(/C(=C\c3cccc(/C=C4/C(=O)C5(C)CCC4C5(C)C)c3)C1=O)C2(C)C` [Example 3, 1,3-phenylenebis(3-methylidenecamphor)] came in with a melting point of 152 °C.

As usually defined, the melting point is the temperature of the solid-liquid transition.
